# Experiment: Human HepG2 cell viability assay in 384 well format
# Assay type: toxicity, cell-based
# Parameters: dose 125 nL, time 70.5 hour; concentration not given beside the values
# Settings: HepG2 cells, read-out: Inhibition
row,SMILES,cytotoxicity at 70.5 h
1,O=C(O)[C@@H]1CN(CC(=O)N2CCCCCC2)C[C@H]1c1ccc(F)cc1,-5.12%
2,CNCC(=O)N1CCCC(c2cccc(Nc3nc(C)cc(C)n3)n2)C1 (configuration not stated),58.7%
3,CCn1cc(Br)c(C(=O)NCc2ccc(F)cc2)n1,4.64%
4,c1cnc(N2CCO[C@H]3[C@H](OCc4cccnc4)CC[C@@H]32)nc1,13.6%
5,O=C(c1ncoc1C1CCCO1)N1CCC2(CCCCC2)CC1 (configuration not stated),-3.26%
6,O=C(c1ccccc1-c1nc[nH]n1)N1CCOC(C(F)(F)F)C1 (configuration not stated),-2.49%
7,c1cnc(OCc2nnc3n2CCN(CC2CCOCC2)C3)nc1,-7.25%
8,O=C(c1ccoc1)N1CC[C@@H]2O[C@@H](COCc3ccncc3)CC[C@@H]21,10.2%
9,Cc1cnc(N2C(=O)CSC2c2cccs2)s1 (configuration not stated),28.2%
10,CN(CCCc1cc(-c2ccc(F)cc2)n[nH]1)C(=O)CCn1cncn1,1.64%
11,COc1ccc(-c2noc(Cn3cc(C)cn3)n2)c(OC)c1OC,-1.78%
12,CC1CCN(C(=O)[C@@H]2CC[C@@H]3[C@@H](CCN3c3ncc(F)cn3)O2)CC1,-2.26%
13,CCCNC(c1cccnc1)c1ccc(F)cc1F (configuration not stated),42.9%
14,COCC(=O)N1CCC([C@@H]2C[C@H](C(F)(F)F)n3nc(C)cc3N2)CC1,-3.42%
15,CC(C)(C)c1n[nH]c(C2CN(Cc3ncc[nH]3)CCO2)n1 (configuration not stated),-0.788%
16,CC(C)N(Cc1ccccc1)C(=O)c1cc(C2CCCN2C)ccn1 (configuration not stated),-6.6%
17,CCN(CC)CC[C@H]1CN(C(=O)NC2CCCCC2)CC[C@H]1CC(=O)O,-1.74%
18,Cc1nc(CCC(=O)NC2CCC2)cc(C2CCNCC2)n1,21.9%
19,CC(=O)N1CCN(c2cnccn2)CC(CO)C1 (configuration not stated),-5.92%
20,Cc1cc(NC(C)c2nncn2C2CCCC2)n2nc(C)c(C)c2n1 (configuration not stated),-12.4%
21,Cc1cc(-c2cnc(N3CCN(C)CC3)nc2-c2ccc(C)s2)on1,6.38%
22,C[C@]1(O)CN(Cc2ncccc2F)CC[C@@H]1Oc1cccc(F)c1,-5.53%
23,Cc1cc(C)c(CNC(=O)N(C)Cc2cccc(F)c2)c(=O)[nH]1,0.933%

row,SMILES,cytotoxicity at 70.5 h
1,COc1cc(N2CC[C@@H]3O[C@H](C(=O)N(C)C)C[C@@H]32)ncn1,-17.2%
2,CCN(C(c1cccnc1)c1ccc2c(c1)CCC2)S(C)(=O)=O (configuration not stated),3.11%
3,CCC1CCCCN1C(=O)Cn1cnc(C#N)n1 (configuration not stated),-4.5%
4,CCn1c(=O)n(Cc2nc(C3CC3)no2)c2ccccc21,23.4%
5,CCC(=O)NCc1ccc(N2CCCCC2)cc1,-2.28%
6,CCc1ccccc1OC1CN(C(=O)c2ccnc(OC)c2)C1,11.1%
7,Cn1cc(-c2nc(CN3CCc4c(ncn4C)C3)cs2)cn1,31%
8,CCN1CCC(NC(=O)NC2CCOc3ccc(Br)cc32)CC1 (configuration not stated),-3.03%
9,NC(=O)CN1CCCN(C(=O)c2ccn(-c3cccc(F)c3)n2)CC1,-7.11%
10,CNC(=O)Nc1cnc2cc(Cl)ccc2c1O,10%
11,CCNC(=O)CN(Cc1ccoc1)C1CCCCC1,-9.92%
12,CC(C)c1cc(C(F)(F)F)n2nc(C3CCN(S(C)(=O)=O)C3)cc2n1 (configuration not stated),-1.05%
13,CCCn1nccc1C(=O)Nc1nc(C)c(C)s1,11.9%
14,COc1cccc(-n2cc(-c3ccnc(N[C@@H](CO)C(C)C)n3)cn2)c1,13.3%
15,CN(Cc1ccncc1)C1CC2(CCN(Cc3ccccn3)CC2)C1,-6.76%
16,Cc1nc(COCc2nc3c(o2)CN(C(=O)c2ccc[nH]2)C3)cs1,-3.29%
17,N#Cc1ccc(NCCC2CCN(CC(F)(F)F)CC2)nc1,2.24%
18,Cc1cnc(C(=O)N2CCCC(c3c(C)c(=O)nc4n3CCC4)C2)cn1 (configuration not stated),-7.55%
19,COc1cc(CCC(=O)NC(C)C)ccc1OCC(F)(F)F,-18.5%
20,CN(C)c1ncc2c(n1)CN(C1CC(C)(C)NC(C)(C)C1)C2=O,-6.77%
21,CCN(CC)c1ncccc1CNC(=O)c1cc2nc(C)cc(C)n2n1,-0.33%
22,Cc1ccc(N2CCO[C@H]3CN(Cc4cc(C)on4)CC[C@H]3C2=O)cn1,-9.06%
23,O=C(COc1cccc(F)c1)N1C[C@@H](O)[C@H](N2CCOCC2)C1,-5.2%

row,SMILES,cytotoxicity at 70.5 h
1,COc1ccccc1OC1(C(=O)O)CCN(c2cnccn2)CC1,47.4%
2,COCCN(Cc1cnn(C)c1)c1nc2c(s1)c(C)nn2C,3.84%
3,Fc1ccc(CN2CCO[C@H]3[C@H](Oc4ccccn4)CC[C@@H]32)cc1,7.26%
4,Cc1cccc(S(=O)(=O)NCC2CCN(c3cnccn3)CC2)c1,-10.1%
5,COc1ccc(C2CN(c3cc(C)ncn3)CCN2C(C)=O)cc1 (configuration not stated),-5.95%
6,O=C(CN1CCCC1c1nc(-c2ccccn2)no1)N1CCNCC1 (configuration not stated),-4.93%
7,Cc1ccc(-n2c(C)nnc2SCC(O)COCc2ccco2)cc1 (configuration not stated),-5.42%
8,CN(C)C(C(=O)NCC1(Cn2cccn2)CC1)c1ccc(F)cc1 (configuration not stated),3.72%
9,CN(C)C(=O)c1cc(NC(=O)N2CCCC(C(F)(F)F)C2)ccn1 (configuration not stated),-1.06%
10,Cn1cc(CCC(=O)NCc2ccccc2OC(C)(C)C)cn1,2.39%
11,Cc1nc(CN2CC3(CCN(c4cnccn4)C3)CC2=O)cs1 (configuration not stated),-10.3%
12,COCCn1ccc(NC(=O)Nc2ccc(C(N)=O)c(F)c2)n1,13.6%
13,COCc1nc2c(o1)CN(C(=O)NCc1ccccc1)C2,-12.9%
14,CC(C)(C)CC(=O)NCC(=O)NS(=O)(=O)c1cccnc1,2.71%
15,COCc1noc(Cn2ccc3ccccc3c2=O)n1,-5.61%
16,CN(Cc1nnc2n1CCC2)S(=O)(=O)c1cc(Br)ccc1Br,-13.1%
17,O=C(CCCOc1ccccc1)N1CCCC(n2cncn2)C1 (configuration not stated),2.63%
18,CCOc1ccccc1OC1CCN(Cc2ccn(C)c(=O)c2)CC1,20.3%
19,Cc1noc(Cl)c1CCC(=O)N1CCc2sccc2C1,-1.52%
20,O=C(NCc1cccc(N2CCCCC2=O)c1)[C@@H](O)c1ccccc1,-7.54%
21,C[C@]1(O)CN(CCC(N)=O)CC[C@@H]1Oc1cccc(F)c1,-0.798%
22,c1ccc2c(c1)CCN(c1ncnc3sc4c(c13)CCNC4)C2,-2.21%
23,COCC(=O)N1CCC(=O)N(C2CCCC2)Cc2cc(F)ccc21,-5.37%

row,SMILES,cytotoxicity at 70.5 h
1,CC(C)Cn1cncc1CNC1CCSCC1,42.7%
2,O=C(Cc1ccccc1O)NC1CCCN(c2ccccc2F)C1=O (configuration not stated),-18.3%
3,CN(C)S(=O)(=O)N1CCC(c2c(C(N)=O)sc3ccccc23)C1 (configuration not stated),-3.67%
4,COc1cccc(OCC(=O)NS(=O)(=O)c2cccnc2)c1,-3.41%
5,COc1ccc(C2CCN(Cc3cscn3)CC2)cc1,0.308%
6,CC(C)C(=O)NCc1ccc(N(C)C)cc1,-4.78%
7,CN1CCO[C@@H]2CN(S(=O)(=O)c3ccc(F)cc3)CC[C@@H]2C1,-1.86%
8,O=C(c1c[nH]c(=O)c(Cl)c1)N1CCc2ccccc2C1,1.04%
9,CC(=O)N1CCC2(C1)CN(S(=O)(=O)c1ccccc1)C2,-7.01%
10,CN1CCCC[C@@H]2[C@H]1[C@@H](c1ccccc1)CCN2C(=O)c1cccnc1,-7.01%
11,COCCNC(=O)CN(C)Cc1ccc(F)cc1Cl,-10.1%
12,Cc1cnn(C2CCCN(C(=O)CCCc3ccccn3)C2)c1 (configuration not stated),-1.28%
13,Cc1ncccc1Oc1nccnc1C1CCCN(C(C)C)C1 (configuration not stated),-6.39%
14,O=C1CC(c2ccc(C(=O)O)cc2)c2ncn(-c3cccc(Cl)c3)c2N1 (configuration not stated),-9.82%
15,c1cc2c(cc1CSCc1noc(C3CC3)n1)OCCO2,-13.8%
16,O=C(c1ccncc1)N1CCC(O)(Cn2ccc3ccncc32)CC1,-13.3%
17,Nc1cc2c(nn1)CCN(C(=O)c1csc(-c3ccco3)n1)C2,-4.34%
18,Cc1nc(COCc2cnc3n2CCN(CC2CCC2)C3C)cs1 (configuration not stated),-5.9%
19,CCCc1cc(C(=O)N2CCC3(CCCN(CCO)C3=O)C2)cs1 (configuration not stated),-0.486%
20,CCN(CC)C(=O)CN(C)C1CCc2ccccc21 (configuration not stated),-3.62%
21,CCc1cc(C(=O)N2CCC(O)(Cn3ccc4ccncc43)CC2)no1,-5.47%
22,CO[C@H]1C[C@@H]2CN(C(=O)c3cc4ccc(F)cc4[nH]3)C[C@@H]2C1,-6.74%
23,CC(Cn1ccnc1)NS(=O)(=O)Cc1ccc(F)cc1 (configuration not stated),-2.62%

row,SMILES,cytotoxicity at 70.5 h
1,COc1cc(CNc2cc(-c3nncn3C)ccn2)cc(OC)c1OC,-3.3%
2,CCC[C@@H](NC(N)=O)C(=O)N1CCc2ccccc2CC1,-3.57%
3,c1cn2c(n1)CN(C1CCOCC1)CC(CN1CCCC1)C2 (configuration not stated),-2.92%
4,Cc1ccnc(NC(=O)c2cccc(OCc3nnnn3C)c2)c1,-17.9%
5,CN(Cc1cccc(C(N)=O)c1)Cc1nc2c(cnn2C)c(=O)[nH]1,-15.8%
6,COc1ccc(C)cc1CN1CCN(Cc2nccn2C)CC1,1.89%
7,Cn1nccc1-c1nc2c(cc1C(=O)O)CCN(CC1CC1)CC2,12.7%
8,Fc1cnc(N2CCO[C@H]3CN(CC4CCC4)C[C@H]32)nc1,-0.999%
9,COc1c(CNCc2ccc(C(=O)N(C)C)cc2)c(C)nn1C,0.637%
10,CCc1noc(C(C)N2CCN(Cc3nnc(C4CC4)o3)CC2)n1 (configuration not stated),-14.9%
11,Cc1nc(NC(=O)N(C)Cc2ccoc2)nn1C,-4.45%
12,Cc1cc(C)n(CC2CCCCN2CC(=O)Nc2ccncc2)n1 (configuration not stated),-0.378%
13,Cn1cccc1C(=O)N1CCn2nnc(COc3cccnc3)c2C1,-8.46%
14,Cc1c(C(=O)N2CCC(O)(CN(C)C)C2)c2cc(O)ccc2n1C (configuration not stated),-9.59%
15,O=C(NCC1(C(=O)O)CCC1)c1nnn(-c2ccc(F)cc2)c1C1CC1,11.7%
16,Cc1ccc(C(=O)N2Cc3c(CN4CCCCC4)nn(C)c3C2)o1,6.3%
17,CSc1ccc(NCC(=O)Nc2c(C)nn(C)c2C)cc1F,-4.28%
18,CC(C)Oc1ncnc2c1CCN(Cc1cccs1)CC2,-6.72%
19,CCC1CN(Cc2nnc(C3CC3)o2)CCN1CCOC (configuration not stated),0.024%
20,COc1ccc(OCCc2cc(C3CCN(CC(C)C)C3)n[nH]2)cc1 (configuration not stated),-2.33%

# From ChEMBL document CHEMBL3507680, “University of Dundee, Gates Library screen for HepG2 cell viability”
